Results as given in patent US11345666B2, “Phenyl and pyridinyl substituted imidazoles as modulators of RORγT” (Janssen Pharmaceutica NV, priority 2018, dated 2022).

Molecular target: human RORγt ligand binding domain (RORγt LBD) (Homo sapiens (Human), UniProt P51449)
Assay: RORγt ThermoFluor assay
In short: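 Thermal shift of His-tagged human RORγt LBD (0.065 mg/mL) with 60 μM 1,8-ANS in 100 mM Hepes pH 7.0, 10 mM NaCl, 2.5 mM GSH, 0.002% Tween-20, heated at 1° C./min. Compounds in 1:2 series from a 10 mM DMSO stock; KD estimated from ΔTm using protein unfolding thermodynamics.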

human RORγt ligand binding domain (RORγt LBD), sequence (P51449 other isoform, or with tags, fused parts or gaps): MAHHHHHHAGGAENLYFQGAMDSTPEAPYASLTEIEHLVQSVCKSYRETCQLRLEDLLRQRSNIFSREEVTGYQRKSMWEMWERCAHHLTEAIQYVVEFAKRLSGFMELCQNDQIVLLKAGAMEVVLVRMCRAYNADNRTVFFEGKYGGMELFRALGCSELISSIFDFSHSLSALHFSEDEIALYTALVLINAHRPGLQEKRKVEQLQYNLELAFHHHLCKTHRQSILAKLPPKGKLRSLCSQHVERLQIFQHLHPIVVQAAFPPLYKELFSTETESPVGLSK

Structure (SMILES)	Kd
CCc1nc(C(=O)NC[C@H]2CC[C@H](S(C)(=O)=O)CC2)c(Cl)n1-c1ccc(CC(C)C(F)(F)F)cc1OC (single isomer, unassigned) [Example 6, 5-Chloro-2-ethyl-1-((1S*)-2-methoxy-4-(3,3,3-trifluoro-2-methylpropyl)phenyl)-N-(((1r,4S)-4-(methylsulfonyl)cyclohexyl)methyl)-1H-imidazole-4-carboxamide]	0.17 nM
CCc1nc(C(=O)NC[C@H]2CC[C@H](S(C)(=O)=O)CC2)c(C)n1-c1ccc(CC(C)C(F)(F)F)cc1OC (single isomer, unassigned) [Example 7]	1 nM
CCc1nc(C(=O)NC[C@H]2CC[C@H](S(C)(=O)=O)CC2)c(Cl)n1-c1ncc(CC(C)(C)C(F)(F)F)cc1OC(F)F [Example 2, 5-Chloro-1-(3-(difluoromethoxy)-5-(3,3,3-trifluoro-2,2-dimethylpropyl)pyridin-2-yl)-2-ethyl-N-((4-(methylsulfonyl)cyclohexyl)methyl)-1H-imidazole-4-carboxamide]	2.4 nM
CCc1nc(C(=O)NC[C@H]2CC[C@H](S(C)(=O)=O)CC2)c(Cl)n1-c1ccc(N[C@H](C)C(F)(F)F)cc1OC [Example 3, 5-Chloro-2-ethyl-1-(2-methoxy-4-(((R)-1,1,1-trifluoropropan-2-yl)amino)phenyl)-N-(((1r,4R)-4-(methylsulfonyl)cyclohexyl)methyl)-1H-imidazole-4-carboxamide]	3.5 nM
CCc1nc(C(=O)NC[C@H]2CC[C@H](S(C)(=O)=O)CC2)c(F)n1-c1ccc(N[C@H](C)C(F)(F)F)cc1OC [Example 12, 2-Ethyl-5-fluoro-1-(2-methoxy-4-(((R)-1,1,1-trifluoropropan-2-yl)amino)phenyl)-N-(((1r,4R)-4-(methylsulfonyl)cyclohexyl)methyl)-1H-imidazole-4-carboxamide]	12 nM
CCc1nc(C(=O)NC[C@H]2CC[C@H](S(C)(=O)=O)CC2)c(Cl)n1-c1ccc(CCC(F)(F)F)cc1F [Example 22, 5-Chloro-2-ethyl-1-(2-fluoro-4-(3,3,3-trifluoropropyl)phenyl)-N-(((1r,4r)-4-(methylsulfonyl)cyclohexyl)methyl)-1H-imidazole-4-carboxamide]	20 nM
[2H]C([2H])([2H])Oc1cc(CC(C)(C)C(F)(F)F)ccc1-n1c(CC)nc(C(=O)NC[C@H]2CC[C@H](S(C)(=O)=O)CC2)c1C#N [Example 27, 5-Cyano-2-ethyl-1-(2-(methoxy-d3)-4-(3,3,3-trifluoro-2,2-dimethylpropyl)phenyl)-N-(((1r,4r)-4-(methylsulfonyl)cyclohexyl)methyl)-1H-imidazole-4-carboxamide]	0.76 nM
CCc1nc(C(=O)NC[C@H]2CC[C@H](S(C)(=O)=O)CC2)c(C#N)n1-c1ccc(CC(C)(C)C(F)(F)F)cc1OC(F)F [Example 36, 5-Cyano-1-(2-(difluoromethoxy)-4-(3,3,3-trifluoro-2,2-dimethylpropyl)phenyl)-2-ethyl-N-(((1r,4r)-4-(methylsulfonyl)cyclohexyl)methyl)-1H-imidazole-4-carboxamide]	1.6 nM
CCc1nc(C(=O)NC[C@]2(O)CC[C@@H](S(C)(=O)=O)CC2)c(Cl)n1-c1c(F)cc(CC(C)C)cc1F [Example 83, 5-Chloro-1-(2,6-difluoro-4-isobutylphenyl)-2-ethyl-N-(((1s,4s)-1-hydroxy-4-(methylsulfonyl)cyclohexyl)methyl)-1H-imidazole-4-carboxamide]	2.6 nM
CCc1nc(C(=O)NC[C@]2(O)CC[C@@H](S(C)(=O)=O)CC2)c(Cl)n1-c1ccc(CC(C(F)(F)F)C(F)(F)F)cc1F [Example 100, 5-Chloro-2-ethyl-1-(2-fluoro-4-(3,3,3-trifluoro-2-(trifluoromethyl)propyl)phenyl)-N-(((1s,4s)-1-hydroxy-4-(methylsulfonyl)cyclohexyl)methyl)-1H-imidazole-4-carboxamide]	2.1 nM
CCc1nc(C(=O)NC[C@]2(O)CC[C@@H](S(C)(=O)=O)CC2)c(C)n1-c1ccc(CC(C(F)(F)F)C(F)(F)F)cc1F [Example 109, 2-Ethyl-1-(2-fluoro-4-(3,3,3-trifluoro-2-(trifluoromethyl)propyl)phenyl)-N-(((1s,4s)-1-hydroxy-4-(methylsulfonyl)cyclohexyl)methyl)-5-methyl-1H-imidazole-4-carboxamide]	6.5 nM
CCc1nc(C(=O)NC[C@]2(O)CC[C@@H](S(C)(=O)=O)CC2)c(C#N)n1-c1ccc(CC(C)(C)C(F)(F)F)cc1OC(F)(F)F [Example 111, 5-Cyano-2-ethyl-N-(((1s,4s)-1-hydroxy-4-(methylsulfonyl)cyclohexyl)methyl)-1-(4-(3,3,3-trifluoro-2,2-dimethylpropyl)-2-(trifluoromethoxy)phenyl)-1H-imidazole-4-carboxamide]	24 nM
